Reference: US20110319360A1, “Method of including apoptosis/Cell death in leukemia cell using a purine nucleoside analogue” (U.S. Department of Veterans Affairs, priority 2010, published 2011)
Read-outs that look alike come from different tables or passages of the source.

Legend:
[1] = test system: CLL cells; test: MTS cytotoxicity assay on primary CLL cells; type: cell-based; settings: Homo sapiens, CLL cell
Method: On the same day that heparin-anticoagulated venous blood was collected from participants, CLL cells were purified by methods described previously (Reference 11). Briefly, CLL cells were isolated from whole blood using the RosetteSep® B-cell enrichment cocktail (Stem Cell Technologies, Vancouver, BC, Canada) together with ficoll-Hypaque density gradient centrifugation. This method yielded CLL cell purity of greater than 95% CD5^+CD19^+ B-cells.
2.5×10^5 CLL cells were incubated in triplicate or quadruplicate in a 96-well tissue culture plate (Costar, Corning, N.Y.) with serial dilutions of LMP-420, fludarabine, and/or recombinant TNF-alpha (R&D Systems, Minneapolis, Minn.) in Hybridoma serum free media (SFM) (GIBCO/Invitrogen, Carlsbad, Calif.) containing 10% heat-inactivated fetal bovine serum (FBS) (Sigma) at 37° C. with 5% CO2. After 72 hours, 20 μl CellTiter 96® AQueous One Solution Cell Proliferation Assay (Promega, Madison, Wis.) MTS (3-(4,5 dimethylthiazol-2-yl)-5-(3-carboxymethoxyphenyl-2-(4-sulfophenyl)-2H-tetrazolium) reagent was added to each well and the absorbance was read at 490 nm on a Thermomax microplate reader (Molecular Devices, Sunnyvale, Calif.). We calculated fractional cytotoxicity as performed previously (Reference 12), comparing absorbance at 490 nm from treated cells to control cells incubated with media alone.
The concentration effective at killing 50% of CLL cells compared to media alone (ED50) was calculated when 50% fractional cytotoxicity occurred within the range of serial dilutions tested (Reference 12). If the ED50 fell below or above this range, it was set to either the lowest or the highest concentration tested, respectively, for the purposes of statistical analyses and graphical representation.

[2] = test system: normal PBMCs; test: [3H]-thymidine proliferation assay, mitogen-stimulated normal PBMCs; type: cell-based, human; settings: for IC50: Homo sapiens, PBMC, 96 h, read-out: IC50 for suppression of mitogen-induced proliferation
Method: CLL cells (2×10^5 cells/well) were cultured in quadruplicate in a volume of 200 μl in 96-well tissue culture plates for 96 hours with 1 μM CpG-oligodeoxynucleotides (ODN) DSP30 (Reference 14) (Midland Certified Reagent Company, Midland, Tex.) and 100 units/ml IL-2 (R&D Systems) in the presence or absence of drug. As controls, cells were treated with media without DSP30/IL-2. Cells were incubated with 1 μCi/well [methyl-^3H]-thymidine (specific activity 6.7 Ci/mmol, PerkinElmer, Waltham, Mass., USA) for 14-18 hours prior to harvesting onto glass-fiber filters using a semi-automated cell harvester. [^3H]-thymidine incorporation was measured as counts per minute (cpm) using a Tri-Carb 2100 timed-resolved liquid scintillation counter (PerkinElmer). The same protocol was utilized for proliferation assays with normal PBMCs, with the exception that growth was stimulated by treatment with 10 μg/ml Phytohemagglutinin-P (PHA, Sigma), 5 μg/ml concanavalin A (ConA, Sigma), 2 μg/ml pokeweed mitogen (PWM, Sigma), 25 ng/ml muromonab-CD3 (α-CD3, Ortho Pharmaceuticals, Raritan, N.J.), or 50 ng/ml phorbol myristate acetate (PMA, Sigma) plus 1 μg/ml ionomycin (iono, Sigma) for 96 hours. Proliferation is reported as percent of control (drug-treated cpm/control-treated cpm×100%).

[3] = test system: CD3-positive T-cell; test: Annexin V apoptosis of normal T-lymphocytes in PBMCs; type: cell-based, human; settings: 72 hours
Method: PBMCs were cultured at 10^6 cells/ml in a 12-well tissue culture plate. Cells were treated for 72 hours with vehicle control or drug for 72 hours, then harvested as above for staining. PBMCs were resuspended at 2×10^5 cells/tube in 100 μl buffer (HBSS, 0.5% bovine serum albumin, 0.1% sodium azide) and incubated for 30 min with CD3-FITC or CD19-FITC antibodies according to the manufacturer's protocol (BD Biosciences). Cells were then incubated with PE-annexin V and 7-AAD (BD Biosciences) in annexin V binding buffer (BD Biosciences) for 15 minutes prior to analysis of apoptosis on the Guava EasyCyte™ Plus system.

[4] = test system: CD34+ hematopoietic progenitor cells (myeloid colonies); test: Colony formation assay, myeloid colonies; type: cell-based, human
Method: CD34^+ hematopoietic progenitor cells were isolated from PBMCs from two healthy donors using the CD34 Microbead Kit (Miltenyi Biotec, Auburn, Calif.). 10^3 CD34^+-enriched cells were cultured in a 35 mm culture plate (1000 cells/plate) with or without LMP-420 or fludarabine in 1.1 ml Human Methylcellulose Complete Media (R&D Systems) according to the manufacturer's protocol. Plates were incubated for 14 days at 37° C. in humidified 5% CO2. Each treatment group was tested in triplicate. Colonies on plates were scored by two independent observers, blinded to the treatment groups, by microscopic evaluation under 10× and 20× power. Colonies were categorized as being of either erythroid or myeloid lineage.

[5] = molecular target: T1, human hERG (Homo sapiens, UniProt Q12809); test: hERG [3H] Astemizole radioligand binding; settings: 1.5 nM [3H] Astemizole, HEK-293 cells, 60 min, 25° C.; read-out: IC50 for inhibition of radioligand binding to the cardiac potassium channel
T1 construct: host or cells: HEK-293
Method: This assay was performed by MDS Pharma Services. Human recombinant HEK-293 cells over-expressing the human hERG receptor were incubated for 60 min at 25° C. with 1.5 nM [^3H] Astemizole in the presence or absence of the indicated concentrations of LMP-420. Nonspecific binding (<10%) was determined by binding of radioligand in 10 μM Astemizole. All samples were determined in duplicate.

[6] = Reference 44; cited from earlier work
[7] = Prior in vivo toxicity studies in rodents

T1 sequence (Q12809 whole entry): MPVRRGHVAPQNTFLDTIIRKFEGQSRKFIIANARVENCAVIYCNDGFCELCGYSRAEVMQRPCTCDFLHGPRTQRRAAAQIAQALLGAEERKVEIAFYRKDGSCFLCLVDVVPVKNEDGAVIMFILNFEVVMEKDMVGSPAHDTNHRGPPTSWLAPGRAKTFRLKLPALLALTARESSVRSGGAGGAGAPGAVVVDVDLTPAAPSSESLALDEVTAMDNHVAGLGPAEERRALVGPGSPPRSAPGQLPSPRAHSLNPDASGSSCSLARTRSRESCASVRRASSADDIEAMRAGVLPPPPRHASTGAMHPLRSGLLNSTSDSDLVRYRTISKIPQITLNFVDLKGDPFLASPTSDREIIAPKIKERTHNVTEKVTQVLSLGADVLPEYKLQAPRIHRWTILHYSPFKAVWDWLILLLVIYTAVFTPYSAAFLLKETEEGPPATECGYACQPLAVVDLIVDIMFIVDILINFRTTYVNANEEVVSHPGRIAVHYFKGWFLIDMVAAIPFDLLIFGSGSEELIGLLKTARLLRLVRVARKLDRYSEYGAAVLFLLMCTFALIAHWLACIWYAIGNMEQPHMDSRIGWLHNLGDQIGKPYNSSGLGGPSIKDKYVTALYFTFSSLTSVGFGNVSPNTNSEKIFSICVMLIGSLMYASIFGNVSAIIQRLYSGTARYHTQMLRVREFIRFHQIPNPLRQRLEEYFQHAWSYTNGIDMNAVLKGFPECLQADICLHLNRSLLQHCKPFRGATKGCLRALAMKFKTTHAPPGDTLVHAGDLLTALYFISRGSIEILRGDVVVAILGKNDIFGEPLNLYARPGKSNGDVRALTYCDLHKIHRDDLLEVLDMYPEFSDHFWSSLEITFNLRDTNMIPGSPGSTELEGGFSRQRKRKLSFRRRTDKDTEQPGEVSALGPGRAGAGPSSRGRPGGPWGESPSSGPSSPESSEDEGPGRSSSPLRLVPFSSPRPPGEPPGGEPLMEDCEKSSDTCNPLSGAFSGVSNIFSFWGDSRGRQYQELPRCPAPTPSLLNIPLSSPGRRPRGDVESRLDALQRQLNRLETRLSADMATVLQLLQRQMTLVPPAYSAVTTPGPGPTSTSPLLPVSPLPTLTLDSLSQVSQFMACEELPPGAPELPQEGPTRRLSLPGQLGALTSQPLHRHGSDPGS

## Nc1nc(Cl)c2ncn(CCCCCB(O)O)c2n1 [LMP-420, 2-amino-6-chloro-9-[5(dihydroxyboryl)-pentyl] purine]
[1]; 72 h, five patients of the nucleosome ELISA set, 72 hours, read-out: mean ED50, fractional cytotoxicity by MTS
  EC50: ~0.85 µM
[1]; 72 h, primary CLL cells, 72 hours, MTS, mean of 35 samples, read-out: mean concentration required to induce 50% cytotoxicity (ED50)
  EC50: 0.245 µM
[1]; CLL samples with favorable risk cytogenetic aberrations, n=27, read-out: median MTS ED50
  EC50: 0.162 µM
[1]; CLL samples with favorable risk cytogenetic aberrations, n=27, read-out: range of MTS ED50
  EC50: 0.027 to 2.52 µM
[1]; CLL samples with poor risk cytogenetic aberrations, n=5, read-out: median MTS ED50
  EC50: 0.332 µM
[1]; mean value from the MTS experiments, read-out: ED50 (μM), CLL
  EC50: 0.25 µM
[2]
  PBMC proliferation IC50 relative to ED50 in CLL cells: 100- to 250 fold
[2]; Con A, 96 hours
  IC50: 71 µM
[2]; PHA, 96 hours
  IC50: > 90 µM
[2]; PMA/Iono, 96 hours
  IC50: > 90 µM
[2]; PWM, 96 hours
  IC50: > 90 µM
[2]; α-CD3, 96 hours
  IC50: 33 µM
[3]; 1 μM, n=3
  average percent drug-specific apoptosis, T-cells: −1%
[3]; concentrations up to 90 μM
  apoptosis in normal T-lymphocytes: did not induce significant apoptosis
[4]
  myeloid colony IC50 relative to CLL ED50: greater than 40 fold
[4]; Homo sapiens, 336 h, 14 days, healthy donors (n=2), read-out: mean IC50 for normal myeloid colony formation
  IC50: 25 µM
[5]
  IC50: > 100 µM
[6]
  oral bioavailability: orally bioavailable
  tolerability in vivo: well-tolerated in vivo
[7]
  peak plasma level at non-toxic doses: greater than 10 μM
